Reference: patent US8580965B2, “Substituted sulfonamide compounds” (Gruenenthal GmbH, priority 2006, dated 2013)
Where a name gives a salt, the structure may show the parent alone.

Legend:
[1] = target: T1, B1R receptor of the rat (bradykinin 1 receptor) (Rattus norvegicus, UniProt P97583); experiment: FLIPR Ca2+ assay (Fluo-4) on CHO K1 cells stably transfected with the B1R gene of the rat; % activation and % inhibition at 10 μM; type: cell-based; settings: CHO K1 rB1R cells, Ca2+ inflow after 100 nM Des-Arg9-bradykinin; for inhibition at 10 µM: CHO-K1, test substance 10 μM, read-out: B1R antagonism, rat [10 μM] % inhibition
T1 construct: host or cells: CHO K1 cells (rB1R cells)
T1 sequence (P97583 1-337): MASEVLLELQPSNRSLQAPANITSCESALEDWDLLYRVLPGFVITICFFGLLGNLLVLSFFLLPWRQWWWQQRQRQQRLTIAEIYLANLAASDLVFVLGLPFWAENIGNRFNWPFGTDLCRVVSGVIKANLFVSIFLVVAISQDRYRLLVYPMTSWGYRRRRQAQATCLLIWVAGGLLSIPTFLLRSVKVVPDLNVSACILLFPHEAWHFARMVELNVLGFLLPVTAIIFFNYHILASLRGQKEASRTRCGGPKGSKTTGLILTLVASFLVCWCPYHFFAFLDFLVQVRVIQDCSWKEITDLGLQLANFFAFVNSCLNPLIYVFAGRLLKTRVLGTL
Method in brief: (§1)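 Fluo-4 Ca2+ flux on FLIPR in stable hB1R or rB1R CHO K1 lines, two additions. Agonism: 10 µM compound versus 0.5 nM Lys-Des-Arg9-BK (human) or 100 nM Des-Arg9-BK (rat); antagonism: same agonists applied 10 min later, suppression expressed against maximum achievable inhibition.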

[2] = target: T2, human B1R receptor (bradykinin 1 receptor) (Homo sapiens, UniProt P46663); experiment: FLIPR Ca2+ assay (Fluo-4) on CHO K1 cells stably transfected with the human B1R gene; % activation and % inhibition at 10 μM; type: cell-based; settings: CHO K1 hB1R cells, Ca2+ inflow after 0.5 nM Lys-Des-Arg9-bradykinin; for inhibition at 10 µM: CHO-K1, test substance 10 μM, read-out: B1R antagonism, human [10 μM] % inhibition
T2 construct: host or cells: CHO K1 cells (hB1R cells)
T2 sequence (P46663 1-353): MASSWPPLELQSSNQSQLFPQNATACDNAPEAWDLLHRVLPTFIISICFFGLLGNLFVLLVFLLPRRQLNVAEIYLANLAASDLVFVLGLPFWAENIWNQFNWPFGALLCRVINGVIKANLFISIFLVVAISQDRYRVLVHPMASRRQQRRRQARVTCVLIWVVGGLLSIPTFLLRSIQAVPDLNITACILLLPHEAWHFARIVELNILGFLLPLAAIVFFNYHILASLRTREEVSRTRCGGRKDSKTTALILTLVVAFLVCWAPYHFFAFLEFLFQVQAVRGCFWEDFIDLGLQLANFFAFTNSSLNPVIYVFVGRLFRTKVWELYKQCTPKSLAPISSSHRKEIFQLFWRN
Method in brief: as §1

Row | SMILES | inhibition at 10 µM [1] [%] | inhibition at 10 µM [2] [%] | B1R antagonism, rat [10 μM] % inhibition ([1]; test substance 10 μM) [%] | B1R antagonism, human [10 μM] % inhibition ([2]; test substance 10 μM) [%]
1 | COc1cc(C)c(S(=O)(=O)N(C)CCCCC(=O)N2CCC(O)(c3cccnc3)CC2)c(C)c1 [Example 121, N-(5-(4-hydroxy-4-(pyridin-3-yl)piperidin-1-yl)-5-oxopentyl)-4-methoxy-N,2,6-trimethylphenylsulfonamide] | 57.1 | 100 | – | –
2 | Cc1cc(S(=O)(=O)N2CCCCC2CCC(=O)N2CCC(O)(c3cccnc3)CC2)c(C)cc1Cl (stereo not shown) [Example 122, 3-(1-(4-chloro-2,5-dimethylphenylsulfonyl)piperidin-2-yl)-1-(4-hydroxy-4-(pyridin-3-yl)piperidin-1-yl)propan-1-one] | – | – | 97.87 | 98.39
3 | O=C(CCC1CCCCN1S(=O)(=O)c1cccc(C(F)(F)F)c1)N1CCC(O)(c2ccc(Br)cc2)CC1 (stereo not shown) [Example 123, 1-(4-(4-bromophenyl)-4-hydroxypiperidin-1-yl)-3-(1-(3-(trifluoromethyl)phenylsulfonyl)piperidin-2-yl)propan-1-one] | 54.7 | 47.9 | – | –
4 | CN(c1ccccc1CCC(=O)N1CCC(O)(c2ccc(Cl)c(C(F)(F)F)c2)CC1)S(=O)(=O)c1ccc(Cl)c(Cl)c1 [Example 124, 3,4-dichloro-N-(2-(3-(4-(4-chloro-3-(trifluoromethyl)phenyl)-4-hydroxypiperidin-1-yl)-3-oxopropyl)phenyl)-N-methylphenylsulfonamide] | 61.6 | 41 | – | –
5 | CN(c1ccccc1CCC(=O)N1CCC(O)(c2cccnc2)CC1)S(=O)(=O)c1ccc(Cl)c(Cl)c1 [Example 125, 3,4-dichloro-N-(2-(3-(4-hydroxy-4-(pyridin-3-yl)piperidin-1-yl)-3-oxopropyl)phenyl)-N-methylphenylsulfonamide] | 91.4 | 93.2 | – | –
6 | COc1cc(C)c(S(=O)(=O)N2CCCCC2COCC(=O)N2CCC(O)(c3cccnc3)CC2)c(C)c1 (stereo not shown) [Example 127, 1-(4-hydroxy-4-(pyridin-3-yl)piperidin-1-yl)-2-((1-(4-methoxy-2,6-dimethylphenylsulfonyl)piperidin-2-yl)methoxy)ethanone] | 101 | 104 | – | –
7 | COc1cc(C)c(S(=O)(=O)N2Cc3ccccc3C[C@H]2COCC(=O)N2CCC(O)(c3cccnc3)CC2)c(C)c1 [Example 128, (S)-1-(4-hydroxy-4-(pyridin-3-yl)piperidin-1-yl)-2-((2-(4-methoxy-2,6-dimethylphenylsulfonyl)-1,2,3,4-tetrahydroisoquinolin-3-yl)methoxy)ethanone] | 98.8 | 101 | – | –
8 | O=C(COC[C@@H]1Cc2ccccc2CN1S(=O)(=O)c1ccc(Cl)cc1Cl)N1CCC(O)(c2cccnc2)CC1 [Example 129, (S)-2-((2-(2,4-dichlorophenylsulfonyl)-1,2,3,4-tetrahydroisoquinolin-3-yl)methoxy)-1-(4-hydroxy-4-(pyridin-3-yl)piperidin-1-yl)ethanone] | 97.3 | 103 | – | –

The next lines start with the values.

Row | inhibition at 10 µM [1] [%] | inhibition at 10 µM [2] [%] | B1R antagonism, rat [10 μM] % inhibition ([1]; test substance 10 μM) [%] | B1R antagonism, human [10 μM] % inhibition ([2]; test substance 10 μM) [%] | SMILES
9 | 98.6 | 103 | – | – | COc1cc(C)c(S(=O)(=O)N(CCOCC(=O)N2CCC(O)(c3cccnc3)CC2)Cc2ccccc2)c(C)c1 [Example 130, N-benzyl-N-(2-(2-(4-hydroxy-4-(pyridin-3-yl)piperidin-1-yl)-2-oxoethoxy)ethyl)-4-methoxy-2,6-dimethylphenylsulfonamide]
10 | 100 | 102 | – | – | O=C(COCC1Cc2ccccc2CN1S(=O)(=O)c1ccc(Cl)cc1Cl)N1CCC(O)(c2cccnc2)CC1 (stereo not shown) [Example 131, 2-((2-(2,4-dichlorophenylsulfonyl)-1,2,3,4-tetrahydroisoquinolin-3-yl)methoxy)-1-(4-hydroxy-4-(pyridin-3-yl)piperidin-1-yl)ethanone hydrochloride]
11 | 99.1 | 101 | – | – | COc1cc(C)c(S(=O)(=O)N(C)CCOCC(=O)N2CCC(O)(c3cccc(C(F)(F)F)c3)CC2)c(C)c1 [Example 132, N-(2-(2-(4-hydroxy-4-(3-(trifluoromethyl)phenyl)piperidin-1-yl)-2-oxoethoxy)ethyl)-4-methoxy-N,2,6-trimethylphenylsulfonamide]
12 | 96.1 | 84.1 | – | – | COc1cc(C)c(S(=O)(=O)N(C)CCOCCC(=O)N2CCC(O)(c3cccnc3)CC2)c(C)c1 [Example 133, N-(2-(3-(4-hydroxy-4-(pyridin-3-yl)piperidin-1-yl)-3-oxopropoxy)ethyl)-4-methoxy-N,2,6-trimethylphenylsulfonamide]
13 | 29.1 | 66 | – | – | COc1ccc(S(=O)(=O)N2Cc3ccccc3C[C@H]2COCC(=O)N2CCC(O)(c3cccnc3)CC2)cc1 [Example 134, (S)-1-(4-hydroxy-4-(pyridin-3-yl)piperidin-1-yl)-2-((2-(4-methoxyphenylsulfonyl)-1,2,3,4-tetrahydroisoquinolin-3-yl)methoxy)ethanone]
14 | 100 | 99.8 | – | – | O=C(COCC1Cc2ccccc2N1S(=O)(=O)c1ccc(Cl)cc1Cl)N1CCC(O)(c2cccnc2)CC1 (stereo not shown) [Example 135, 2-((1-(2,4-dichlorophenylsulfonyl)indolin-2-yl)methoxy)-1-(4-hydroxy-4-(pyridin-3-yl)piperidin-1-yl)ethanone]
15 | 95.3 | 93.6 | – | – | COc1cc(C)c(S(=O)(=O)N(C)CCOCC(=O)N2CCC(O)(c3ccc(Cl)cc3)CC2)c(C)c1 [Example 136, N-(2-(2-(4-(4-chlorophenyl)-4-hydroxypiperidin-1-yl)-2-oxoethoxy)ethyl)-4-methoxy-N,2,6-trimethylphenylsulfonamide]
16 | 99.3 | 101 | – | – | COc1cc(C)c(S(=O)(=O)N(C)CCOCC(=O)N2CCC(O)(c3ccccc3)CC2)c(C)c1 [Example 137, N-(2-(2-(4-hydroxy-4-phenylpiperidin-1-yl)-2-oxoethoxy)ethyl)-4-methoxy-N,2,6-trimethylphenylsulfonamide]
17 | 99.6 | 102 | – | – | COc1cc(C)c(S(=O)(=O)N2CCCCC2COCC(=O)N2CCC(O)(c3ccccn3)CC2)c(C)c1 (stereo not shown) [Example 138, 1-(4-hydroxy-4-(pyridin-2-yl)piperidin-1-yl)-2-((1-(4-methoxy-2,6-dimethylphenylsulfonyl)piperidin-2-yl)methoxy)ethanone]
18 | 101 | 104 | – | – | COc1cc(C)c(S(=O)(=O)N(CCOCC(=O)N2CCC(O)(c3cccnc3)CC2)C2CC2)c(C)c1 [Example 139, N-cyclopropyl-N-(2-(2-(4-hydroxy-4-(pyridin-3-yl)piperidin-1-yl)-2-oxoethoxy)ethyl)-4-methoxy-2,6-dimethylphenylsulfonamide]
19 | 101 | 104 | – | – | COc1cc(C)c(S(=O)(=O)N(C)CCOCC(=O)N2CCC(O)(CCc3cccnc3)CC2)c(C)c1 [Example 140, N-(2-(2-(4-hydroxy-4-(2-(pyridin-3-yl)ethyl)piperidin-1-yl)-2-oxoethoxy)ethyl)-4-methoxy-N,2,6-trimethylphenylsulfonamide]
20 | 100 | 104 | – | – | COc1cc(C)c(S(=O)(=O)N(C)CCOCC(=O)N2CCC(O)(c3cccc(F)c3)CC2)c(C)c1 [Example 141, N-(2-(2-(4-(3-fluorophenyl)-4-hydroxypiperidin-1-yl)-2-oxoethoxy)ethyl)-4-methoxy-N,2,6-trimethylphenylsulfonamide]
